Assay [1] has as its target T1, hDP/Gqs5 (Homo sapiens, UniProt Q13258).
T1 construct: expressed in transfected cells; host or cells: HEK-293(EBNA)
T1 sequence (Q13258 1-359): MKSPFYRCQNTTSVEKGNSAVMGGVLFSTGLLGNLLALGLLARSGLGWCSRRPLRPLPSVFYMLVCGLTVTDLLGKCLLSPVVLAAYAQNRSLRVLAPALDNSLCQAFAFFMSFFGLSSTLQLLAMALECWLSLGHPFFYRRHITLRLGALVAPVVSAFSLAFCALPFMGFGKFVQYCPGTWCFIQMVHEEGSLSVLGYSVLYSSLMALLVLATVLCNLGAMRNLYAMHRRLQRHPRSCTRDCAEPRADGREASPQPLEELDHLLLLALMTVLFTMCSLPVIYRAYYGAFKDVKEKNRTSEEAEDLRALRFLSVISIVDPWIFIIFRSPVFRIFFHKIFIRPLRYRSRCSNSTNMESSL
In words: FLIPR calcium signal, hDP. Format: cell-based. Particulars: read-out: Other Receptors (EC50 in nM) hDP. The procedure: (§1) HEK-293(EBNA) cells, stably expressing one type or subtype of recombinant human prostaglandin receptors (prostaglandin receptors expressed: hDP/Gqs5; hEP1; hEP2/Gqs5; hEP3A/Gqi5; hEP4/Gqs5; hFP; hIP; hTP), were cultured in 100 mm culture dishes in high-glucose DMEM medium containing 10% fetal bovine serum, 2 mM l-glutamine, 250 μg/ml geneticin (G418) and 200 μg/ml hygromycin B as selection markers, and 100 units/ml penicillin G, 100 μg/ml streptomycin and 0.25 μg/ml amphotericin B.
(§2) Cells were seeded at a density of 5×10^4 cells per well in Biocoat® Poly-D-lysine-coated black-wall, clear-bottom 96-well plates (Becton-Dickinson) and allowed to attach overnight in an incubator at 37° C. Cells were then washed two times with HBSS-HEPES buffer (Hanks Balanced Salt Solution without bicarbonate and phenol red, 20 mM HEPES, pH 7.4) using a Denley Cellwash plate washer (Labsystems). After 45 minutes of dye-loading in the dark, using the calcium-sensitive dye Fluo-4 […] at a final concentration of 2 μM, plates were washed four times with HBSS-HEPES buffer to remove excess dye leaving 100 μl in each well. Plates were re-equilibrated to 37° C. for a few minutes.
(§3) Cells were excited with an Argon laser at 488 nm, and emission was measured through a 510-570 nm bandwidth emission filter (FLIPR™, Molecular Devices, Sunnyvale, Calif.). Drug solution was added in a 50 μl volume to each well to give the desired final concentration. The peak increase in fluorescence intensity was recorded for each well. On each plate, four wells each served as negative (HBSS-HEPES buffer) and positive controls (standard agonists: BW245C (hDP); PGE2 (hEP1; hEP2/Gqs5; hEP3A/Gqi5; hEP4/Gqs5); PGF2α (hFP); carbacyclin (hIP); U-46619 (hTP), depending on receptor). The peak fluorescence change in each drug-containing well was then expressed relative to the controls.
(§4) Compounds were tested in a high-throughput (HTS) or concentration-response (CoRe) format. In the HTS format, forty-four compounds per plate were examined in duplicates at a concentration of 10^−5 M. To generate concentration-response curves, four compounds per plate were tested in duplicates in a concentration range between 10^−5 and 10^−11 M. The duplicate values were averaged. In either, HTS or CoRe format each compound was tested on at least 3 separate plates using cells from different passages to give an n≧3.

The target of assay [2] is T2, hEP2/Gqs5 (Homo sapiens, UniProt P43116).
T2 construct: expressed in transfected cells; host or cells: HEK-293(EBNA)
In words: FLIPR calcium signal, EP2. It counts as cell-based. Particulars: HEK-293(EBNA) cells. Here is the method:
as §1, §2, §3, §4

Assay [3] concerns the target EP2 (Homo sapiens, UniProt P43116). In words: Competition binding [3H]PGE2, EP2 Ki. Also on record: expressed in transfected cells; host or cells: HEK 293. To be noted: [3H]PGE2 competition, HEK 293 cells expressing human EP2. The procedure: Competition binding experiments were performed in a medium containing Hank's balanced salt solution, Hepes 20 mM, pH 7.3, membranes (˜60 μg protein) or 2×10^5 cells from HEK 293 cells stably expressing human EP2 receptors, [^3H]PGE2 (10 nM) and various concentrations of test compounds in a total volume of 300 μl. Reaction mixtures were incubated at 23° C. for 60 min, and were filtered over Whatman GF/B filters under vacuum. Filters were washed three times with 5 ml ice-cold buffer containing 50 mM Tris/HCl (pH 7.3). Non-specific binding was estimated in the presence of excess unlabeled PGE2 (10 μM). Binding data fitted to the binding model for a single class of binding sites, using nonlinear regression analysis. IC50 values thus obtained were converted to Ki using the equation of Ki=(IC50/(1+[L]/KD) where [L] represents PGE2 concentration (10 nM) and KD the dissociation constant for [^3H]PGE2 at human EP2 receptors (40 nM).
HEK-293 cells stably expressing the human or feline FP receptor, or EP1, EP2, or EP4 receptors were washed with TME buffer, scraped from the bottom of the flasks, and homogenized for 30 sec using a Brinkman PT 10/35 polytron. TME buffer was added to achieve a final 40 ml volume in the centrifuge tubes (the composition of TME is 100 mM TRIS base, 20 mM MgCl2, […]; 10N HCl is added to achieve a pH of 7.4).
The cell homogenate was centrifuged at 19000 r.p.m. for 20 min at 4° C. using a Beckman Ti-60 rotor. The resultant pellet was resuspended in TME buffer to give a final 1 mg/ml protein concentration, as determined by Biorad assay. Radioligand binding competition assays vs. [^3H-]17-phenyl PGF2α (5 nM) were performed in a 100 μl volume for 60 min. Binding reactions were started by adding plasma membrane fraction. The reaction was terminated by the addition of 4 ml ice-cold TRIS-HCl buffer and rapid filtration through glass fiber GF/B filters using a Brandel cell harvester. The filters were washed 3 times with ice-cold buffer and oven dried for one hour.
[^3H-] PGE2 (specific activity 180 Ci mmol) was used as the radioligand for EP receptors. [^3H] 17-phenyl PGF2α was employed for FP receptor binding studies. Binding studies employing EP1, EP2, EP4 and FP receptors were performed in duplicate in at least three separate experiments. A 200 μl assay volume was used. Incubations were for 60 min at 25° C. and were terminated by the addition of 4 ml of ice-cold 50 mM TRIS-HCl, followed by rapid filtration through Whatman GF/B filters and three additional 4 ml washes in a cell harvester (Brandel). Competition studies were performed using a final concentration of 5 nM [^3H]-PGE2, or 5 nM [^3H] 17-phenyl PGF2α and non-specific binding determined with 10^−5M of unlabeled PGE2, or 17-phenyl PGF2α, according to receptor subtype studied.

Molecules are shown by their SMILES. Bounds are passed on as bounds.

T2 sequence (P43116 whole entry): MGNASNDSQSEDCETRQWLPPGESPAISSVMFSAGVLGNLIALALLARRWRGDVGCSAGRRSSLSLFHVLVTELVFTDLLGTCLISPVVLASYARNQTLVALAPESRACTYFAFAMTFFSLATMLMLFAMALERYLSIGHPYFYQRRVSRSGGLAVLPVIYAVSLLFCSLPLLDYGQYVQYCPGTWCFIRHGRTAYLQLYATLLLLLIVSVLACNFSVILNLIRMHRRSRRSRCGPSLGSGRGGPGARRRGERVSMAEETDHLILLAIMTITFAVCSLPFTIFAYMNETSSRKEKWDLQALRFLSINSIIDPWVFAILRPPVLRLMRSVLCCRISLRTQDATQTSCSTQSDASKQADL
EP2, sequence (P43116 whole entry): as above

As usually defined, the EC50 is the concentration giving half of the maximal effect. Usually Ki stands for a dissociation constant, usually derived from enzyme kinetics or from competition with a known ligand. `O=C(O)c1ccc(CCC[C@@H]2[C@@H](CCc3cc(F)cc(F)c3)[C@H](O)C[C@H]2Cl)s1` [11d, 5-(3-((1R,2R,3R,5R)-5-chloro-2-(3,5-difluorophenethyl)-3-hydroxycyclopentyl)propyl)thiophene-2-carboxylic acid]: the values for the EC50 in assay [1] and in assay [2] were 12700 nM and 10 nM, respectively. In assay [3], this molecule yielded an inhibition constant Ki of 2 nM.

On to `O=C(O)c1ccc(CCC[C@@H]2[C@@H](CCc3cc(Cl)cc(Cl)c3)[C@@H](O)C[C@H]2Cl)s1` [compound 17, 5-(3-((1R,2R,3S,5R)-5-chloro-2-(3,5-dichlorophenethyl)-3-hydroxycyclopenty)propyl)thiophene-2-carboxylic acid], for which the EC50 in assay [1] was greater than 10000 nM; in assay [2], 501 nM. Moreover, the Ki in assay [3] was 22 nM.

Values taken from US7592366B2, “Therapeutic compounds” (Allergan, Inc., priority 2006, dated 2009).
